# Earlier results, collected in patent US20240335377A1, “COMPOSITION AND METHODS OF TREATMENT USING TRANSDERMAL SUPPLEMENTATION” (Xygenyx Inc., priority 2023, published 2024).
# Where a SMILES comes first, the peptide text is derived from it. [ ]: non-standard residue; d: D form. Cit = NC(=O)NCCC[C@H](N)C(=O)O
# Experiments:
# [1] = in vivo
# [2] = tested on: markers of inflammation; details: supplementation, individuals with metabolic syndrome
# [3] = α-tocopherol taken as 1.0
# [4] = dietary supplementation, doses up to 400 IU/day
# [5] = tested on: F2-isoprostane; details: large doses of 1600-3200 IU/day
# [6] = tested on: skin; details: single penetration enhancer
# [7] = tested on: skin; details: topical, concentrations 0.5-5%
# [8] = tested on: rheumatoid arthritis; details: rheumatoid arthritis study
# [9] = even when dietary intake occurs in equal portions
# [10] = tested on: wide dynamic range neurons in the ventroposterolateral nucleus of the thalamus
# [11] = tested on: skin; details: topical formulations, within four weeks of treatment
compound,measurement,setting,value
HGH: hormone comprising a peptide chain that is synthesized in the pituitary gland,biological half-life,[1],10-20 minutes
Cc1cc(O)cc2c1OC(C)(CCCC(C)CCCC(C)CCCC(C)C)CC2 (stereo not shown) [δ-tocopherol],markers of inflammation in the blood,[2],reduced markers of inflammation
same,relative biological activity,[3],0.03
Cc1c(C)c2c(c(C)c1O)CCC(C)(CCCC(C)CCCC(C)CCCC(C)C)O2 (stereo not drawn) [α-tocopherol],reduction of risk of coronary disease,[4],up to 34%
same,reduction of risk of developing neurodegenerative diseases such as Alzheimer's Syndrome or dementia,[4]; controlled trials,≤ 24%
same,blood plasma concentration of F2-isoprostane,[5],significantly lower
"CC12CCC(CC1)C(C)(C)O2 [eucalyptol, Eucalyptol]",increase of transdermal drug uptake (factor),[6],more than 10
CC1CCC(C(C)C)C(O)C1 (stereo not shown) [Menthol],increase of transdermal drug uptake (factor),[6],≥ 10
Cc1cc(O)c(C)c2c1OC(C)(CCCC(C)CCCC(C)CCCC(C)C)CC2 (stereo not drawn) [β-tocopherol],relative biological activity,[3],0.5
"C=CCCCCCCCCC(=O)N[C@@H](Cc1ccccc1)C(=O)O [UP, Undecylenoyl phenylalanine]",time to skin lightening effects,[7],≥ 7 days
C=C1CC/C=C(\C)CC[C@@H]2[C@@H]1CC2(C)C [β-caryophyllene],"swelling of joints and lymph nodes, circulating and articular leukocytes",[8],reduced swelling of joints and lymph nodes as well as the number of circulating and articular leukocytes
"C/C(=C\CO)CCC[C@H](C)CCC[C@H](C)CCCC(C)C [phytol, Phytol]",solubility in water,,nearly insoluble in water
Cc1c(O)cc2c(c1C)OC(C)(CCCC(C)CCCC(C)CCCC(C)C)CC2 (stereo not shown) [γ-tocopherol],concentration in vivo relative to α-tocopherol,[9],roughly 10%
same,relative biological activity,[3],0.1
"CCCCCc1cc(O)c2c(c1)OC(C)(C)[C@@H]1CCC(C)=C[C@@H]21 [THC, Δ-9-tetrahydrocannabinol]",power in mediating pain relative to morphine,[10],ten times more powerful than morphine
"CC[C@H](C)[C@H](NC(=O)[C@H](CC(=O)O)NC(=O)[C@@H](N)CCCCN)C(=O)N[C@@H](CCCNC(N)=O)C(N)=O [tripeptide-10 citrulline, Tripeptide-10 citrulline] (H-KDI[Cit]-NH2)",improvement of suppleness,[11],≤ 54%
